Measured values from paper PMC10449634, “A general method for the development of multicolor biosensors with large dynamic ranges” (Nature Chemical Biology, 2023).

Assays:
ChemoG1 (eGFP-HT7) = biological target: T1, ChemoG1 (eGFP-HT7) (Rhodococcus sp. (in: high G+C Gram-positive bacteria), UniProt P0A3G3, L47V/S58T/D78G/Y87F/L88M/C128F/A155T/E160K/A167V/A172T/K175M/C176G/K195N/A224E/N227D/E257K/T264A/H272N/Y273L/P291S/A292T); assay: X-ray crystallography, […] Å; type: binding; conditions: covalent; HaloTag labelling with chloroalkane; fluorophore at eGFP-HT7 interface
T1 construct: gene dhaA; eGFP fused directly to N terminus of HaloTag7; His10 removed with TEV protease; E. coli

[1] = biological target: HaloTag7 (HT7) E143R E147R L271E labeled with SiR, as the C-terminal part of ChemoG5 (construct for fluorescence spectroscopy); assay: FRET or BRET; intramolecular FRET of the purified eGFP–HT7 fusion (both partners on one chain), 200 nM protein labeled with 400 nM fluorophore–CA substrate, activity buffer (50 mM HEPES, 50 mM NaCl, pH 7.3) with 0.5 mg/ml BSA, 37 °C, plate reader
ATeam 1.03 = biological target: T2, ATeam 1.03 (Bacillus subtilis, UniProt P37812); assay: FRET sensor titration; type: binding; conditions: read-out: C50
T2 construct: gene atpC; epsilon subunit between mseCFP and Venus
T2 sequence (P37812 whole entry): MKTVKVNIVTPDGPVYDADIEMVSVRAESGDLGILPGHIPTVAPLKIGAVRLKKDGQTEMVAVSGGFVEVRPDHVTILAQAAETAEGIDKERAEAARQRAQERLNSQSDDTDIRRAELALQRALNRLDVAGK

CN(C)c1ccc2c(-c3cc(C(=O)NCCOCCOCCCCCCCl)ccc3C(=O)[O-])c3ccc(=[N+](C)C)cc-3oc2c1 [TMR-CA]
X-ray crystallography, 1.8 Å (ChemoG1 (eGFP-HT7)): X-ray structure of ChemoG1 labeled with the fluorophore tetramethylrhodamine

eGFP A206K T225R, as the N-terminal part of ChemoG5 (construct for fluorescence spectroscopy) (from UniProt P42212 3-238) (domain or fragment)
FRET efficiency [1]: 95.8%

Nc1ncnc2c1ncn2[C@@H]1O[C@H](COP(=O)(O)OP(=O)(O)OP(=O)(O)O)[C@@H](O)[C@H]1O [ATP]
EC50 (ATeam 1.03): 1800 µM
